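Interpolation was linear, between the two tested concentrations surrounding the appropriate level; five concentrations were tested over 48 hours in 96-well plates. TGI marks complete inhibition of growth.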
Tests used:
Experiment in all cases: NCI anticancer screen, dose series, 48 h
[1] = test system: 786-0 renal
[2] = test system: A498 renal
[3] = test system: A549 NSCLC
[4] = test system: ACHN renal
[5] = test system: BT-549 breast
[6] = test system: COLO 205 colon
[7] = test system: DU-145 prostate
[8] = test system: EKVX NSCLC
[9] = test system: HCC-2998 colon
[10] = test system: HCT-116 colon
[11] = test system: HCT-15 colon
[12] = test system: HL-60(TB) leukemia
[13] = test system: HOP-62 NSCLC
[14] = test system: HOP-92 NSCLC
[15] = test system: HS 578T breast
[16] = test system: HT29 colon
[17] = test system: IGROV1 ovarian
[18] = test system: KM12 colon
[19] = test system: LOX IMVI melanoma
[20] = test system: M14 melanoma
[21] = test system: MALME-3M melanoma
[22] = test system: MCF7 breast
[23] = test system: MDA-MB-231 breast
[24] = test system: MDA-MB-435
[25] = test system: MDA-N
[26] = test system: MOLT-4 leukemia
[27] = test system: NCI-H226 lung
[28] = test system: NCI-H23 lung
[29] = test system: NCI-H460 lung
[30] = test system: NCI-H522 lung
[31] = test system: NCI/ADR-RES ovarian
[32] = test system: OVCAR-3 ovarian
[33] = test system: OVCAR-4 ovarian
[34] = test system: OVCAR-5 ovarian
[35] = test system: OVCAR-8 ovarian
[36] = test system: PC-3 prostate
[37] = test system: RXF 393 renal
[38] = test system: SF-268 CNS
[39] = test system: SF-295 CNS
[40] = test system: SF-539 CNS
[41] = test system: SK-MEL-28 melanoma
[42] = test system: SK-MEL-5 melanoma
[43] = test system: SK-OV-3 ovarian
[44] = test system: SN12C renal
[45] = test system: SNB-19 CNS
[46] = test system: SNB-75 CNS
[47] = test system: SW-620 colon
[48] = test system: T-47D breast
[49] = test system: TK-10 renal
[50] = test system: U251 CNS
[51] = test system: UACC-257 melanoma
[52] = test system: UACC-62 melanoma
[53] = test system: UO-31 renal
[54] = test system: CAKI-1 renal
[55] = test system: CCRF-CEM leukemia
[56] = test system: K-562 leukemia
[57] = test system: RPMI-8226 leukemia
[58] = test system: SK-MEL-2 melanoma
[59] = test system: SR leukemia

Which results are given for `COc1cc(OC)c(/C=C\c2cc(/C=C/c3c(OC)cc(OC)cc3OC)c3ccccc3[n+]2C)c(OC)c1`?
TGI [1]: 7.56 µM; TGI [2]: 14 µM; TGI [3]: > 41.7 µM; TGI [4]: 25.8 µM; TGI [5]: > 24.7 µM; TGI [6]: 6.1 µM; TGI [7]: 20.9 µM; TGI [8]: 11.4 µM; TGI [9]: 14.5 µM; TGI [10]: > 28.3 µM; TGI [11]: > 47.4 µM; TGI [12]: 5.62 µM; TGI [13]: 16.3 µM; TGI [14]: 8.08 µM; TGI [15]: 97.9 µM; TGI [16]: 5.93 µM; TGI [17]: 38.3 µM; TGI [18]: 10.4 µM; TGI [19]: 18.3 µM; TGI [20]: 12.7 µM; TGI [21]: 4.52 µM; TGI [22]: > 39.8 µM; TGI [23]: 10.2 µM; TGI [24]: 6.43 µM; TGI [25]: 8.19 µM; TGI [26]: 5.48 µM; TGI [27]: 23.6 µM; TGI [28]: 9.25 µM; TGI [29]: 8.92 µM; TGI [30]: 7.58 µM; TGI [31]: > 100 µM; TGI [32]: 6.17 µM; TGI [33]: 36.4 µM; TGI [34]: 57 µM; TGI [35]: 5.34 µM; TGI [36]: 11.5 µM; TGI [37]: 10.9 µM; TGI [38]: 10.5 µM; TGI [39]: 10.9 µM; TGI [40]: 5.93 µM; TGI [41]: 10.9 µM; TGI [42]: 2 µM; TGI [43]: > 48 µM; TGI [44]: 9.8 µM; TGI [45]: 40 µM; TGI [46]: 14.2 µM; TGI [47]: > 36.3 µM; TGI [48]: 7.11 µM; TGI [49]: > 49 µM; TGI [50]: > 61.4 µM; TGI [51]: 12.4 µM; TGI [52]: 16.5 µM; TGI [53]: > 55.4 µM

With `Nc1ccn(C2CCC(CO)O2)c(=S)n1` (stereo unspecified) as the molecule, how does the TGI [1] read?
The TGI was > 100 µM.

And the TGI [2]?
The TGI was > 100 µM.

What about the TGI [3] of the same molecule?
The TGI was > 100 µM.

And the TGI [4]?
The TGI was > 100 µM.

What about the TGI [5] of the same molecule?
Its TGI is > 100 µM.

And the TGI [54]?
The TGI was > 100 µM.

And the TGI [55]?
The TGI was > 100 µM.

What about the TGI [6] of the same molecule?
Its TGI is > 100 µM.

What about the TGI [7] of the same molecule?
The TGI was > 100 µM.

And the TGI [8]?
The TGI was > 100 µM.

What about the TGI [9] of the same molecule?
The TGI was > 100 µM.

And the TGI [10]?
Its TGI is > 100 µM.

What about the TGI [11] of the same molecule?
Its TGI is > 100 µM.

What about the TGI [12] of the same molecule?
The TGI was > 100 µM.

What about the TGI [13] of the same molecule?
The TGI was > 100 µM.

And the TGI [14]?
Its TGI is > 100 µM.

And the TGI [15]?
Its TGI is > 100 µM.

And the TGI [16]?
Its TGI is > 100 µM.

And the TGI [17]?
Its TGI is > 100 µM.

What about the TGI [56] of the same molecule?
Its TGI is > 100 µM.

What about the TGI [18] of the same molecule?
Its TGI is > 100 µM.

And the TGI [19]?
Its TGI is > 100 µM.

What about the TGI [20] of the same molecule?
The TGI was > 100 µM.

And the TGI [21]?
Its TGI is > 100 µM.

And the TGI [22]?
The TGI was > 100 µM.

What about the TGI [23] of the same molecule?
The TGI was > 100 µM.

What about the TGI [24] of the same molecule?
Its TGI is > 100 µM.

What about the TGI [25] of the same molecule?
The TGI was > 100 µM.

What about the TGI [26] of the same molecule?
Its TGI is > 100 µM.

What about the TGI [27] of the same molecule?
Its TGI is > 100 µM.

What about the TGI [28] of the same molecule?
Its TGI is > 100 µM.

What about the TGI [29] of the same molecule?
Its TGI is > 100 µM.

And the TGI [30]?
Its TGI is > 100 µM.

And the TGI [31]?
Its TGI is > 100 µM.

What about the TGI [32] of the same molecule?
Its TGI is > 100 µM.

And the TGI [34]?
Its TGI is > 100 µM.

What about the TGI [35] of the same molecule?
Its TGI is > 100 µM.

And the TGI [36]?
Its TGI is > 100 µM.

And the TGI [57]?
Its TGI is > 100 µM.

And the TGI [37]?
The TGI was > 100 µM.

And the TGI [38]?
The TGI was > 100 µM.

And the TGI [39]?
The TGI was > 100 µM.

What about the TGI [40] of the same molecule?
The TGI was > 100 µM.

And the TGI [58]?
The TGI was > 100 µM.

And the TGI [42]?
The TGI was > 100 µM.

And the TGI [43]?
The TGI was > 100 µM.

What about the TGI [44] of the same molecule?
Its TGI is > 100 µM.

And the TGI [45]?
The TGI was > 100 µM.

And the TGI [46]?
The TGI was > 100 µM.

And the TGI [59]?
The TGI was > 100 µM.

What about the TGI [47] of the same molecule?
The TGI was > 100 µM.

What about the TGI [48] of the same molecule?
Its TGI is > 100 µM.

And the TGI [49]?
Its TGI is > 100 µM.

And the TGI [50]?
The TGI was > 100 µM.

What about the TGI [51] of the same molecule?
The TGI was > 100 µM.

What about the TGI [52] of the same molecule?
Its TGI is > 100 µM.

What about the TGI [53] of the same molecule?
Its TGI is > 100 µM.

Which results are given for `CCN(CC)c1ccc2cc(C(=O)Nc3ccccc3)c(=N)oc2c1`?
TGI [1]: > 100 µM; TGI [3]: > 100 µM; TGI [4]: > 100 µM; TGI [5]: > 100 µM; TGI [54]: > 100 µM; TGI [55]: > 100 µM; TGI [6]: > 100 µM; TGI [7]: > 100 µM; TGI [8]: > 100 µM; TGI [9]: > 100 µM; TGI [10]: > 100 µM; TGI [11]: > 100 µM; TGI [12]: > 100 µM; TGI [13]: > 100 µM; TGI [14]: > 100 µM; TGI [15]: > 100 µM; TGI [16]: > 100 µM; TGI [17]: > 100 µM; TGI [56]: > 100 µM; TGI [18]: > 100 µM; TGI [19]: > 100 µM; TGI [20]: > 100 µM; TGI [21]: > 100 µM; TGI [22]: > 100 µM; TGI [23]: > 100 µM; TGI [24]: > 100 µM; TGI [25]: > 100 µM; TGI [26]: > 100 µM; TGI [27]: > 100 µM; TGI [29]: > 100 µM; TGI [31]: > 100 µM; TGI [33]: > 100 µM; TGI [34]: > 100 µM; TGI [35]: > 100 µM; TGI [36]: > 100 µM; TGI [57]: > 100 µM; TGI [37]: > 100 µM; TGI [38]: > 100 µM; TGI [39]: > 100 µM; TGI [40]: > 100 µM; TGI [58]: > 100 µM; TGI [41]: > 100 µM; TGI [42]: > 100 µM; TGI [43]: > 100 µM; TGI [44]: > 100 µM; TGI [45]: > 100 µM; TGI [46]: > 100 µM; TGI [59]: > 100 µM; TGI [47]: > 100 µM; TGI [48]: > 100 µM; TGI [49]: > 100 µM; TGI [50]: > 100 µM; TGI [51]: > 100 µM; TGI [52]: > 100 µM; TGI [53]: > 100 µM

Which results are given for `CC(=O)OC/C=C\Cn1nc(Br)c(=O)[nH]c1=O`?
TGI [2]: 34.7 µM; TGI [3]: 32.3 µM; TGI [4]: 23.4 µM; TGI [5]: 22.2 µM; TGI [54]: 22.8 µM; TGI [55]: 24.5 µM; TGI [6]: 29.6 µM; TGI [7]: 31.9 µM; TGI [8]: 34.5 µM; TGI [9]: 31.7 µM; TGI [11]: 27.2 µM; TGI [12]: 17.6 µM; TGI [13]: 45.1 µM; TGI [14]: 27.9 µM; TGI [15]: 54 µM; TGI [17]: 29.4 µM; TGI [56]: 26.5 µM; TGI [18]: 30.1 µM; TGI [19]: 20.1 µM; TGI [20]: 30.9 µM; TGI [21]: 31.1 µM; TGI [22]: 28.5 µM; TGI [23]: 43.4 µM; TGI [24]: 29.4 µM; TGI [25]: 32 µM; TGI [27]: 30.1 µM; TGI [28]: 32.5 µM; TGI [29]: 26.7 µM; TGI [30]: 16.7 µM; TGI [31]: 56 µM; TGI [32]: 22.5 µM; TGI [34]: 31.8 µM; TGI [35]: 34.7 µM; TGI [36]: 26 µM; TGI [57]: 72.7 µM; TGI [37]: 27.1 µM; TGI [38]: 31.5 µM; TGI [40]: 24.7 µM; TGI [58]: 30.6 µM; TGI [41]: 32 µM; TGI [42]: 30.9 µM; TGI [44]: 55.2 µM; TGI [45]: 37.7 µM; TGI [46]: 29.6 µM; TGI [59]: 15.6 µM; TGI [47]: 32.3 µM; TGI [48]: 37.1 µM; TGI [49]: 38.2 µM; TGI [50]: 22.6 µM; TGI [51]: 31.8 µM; TGI [53]: 31.2 µM

— PubChem BioAssay (NCI)
